ChEMBL document CHEMBL6182861, “Structural modification of heptamethine indocyanine dyes with improved aqueous solubility and stability for photothermal therapy” (Eur J Med Chem, 2025)
Activity calls are given as the source filed them. No cut-off for these calls is given here.

Key:
Mitochondrial membrane [1] = test: Inhibition of mitochondrial membrane potential in human HepG2 cells at 3.12 uM incubated for 24 hrs by flow cytometry; type: cell membranes
HepG2 [2] = test: Induction of apoptosis in human HepG2 cells at 3.12 uM incubated for 4 hrs followed by exposure to laser irradiation of 808 nm for 2 mins by Annexin V-FITC/PI staining based flow cytometry; type: functional, cell-based; conditions: time 242.0 min
4T1 [3] = test: Induction of ROS generation in mouse 4T1 cells at 3.12 uM incubated for 4 hrs followed by exposure to laser irradiation of 808 nm for 2 mins by flow cytometry; type: functional, cell-based; conditions: time 242.0 min
[4] = Photosensitizing property of compound assessed as generation of singlet-state oxygen by ESR spectrometry; type: functional
Mitochondrial membrane [5] = test: Inhibition of mitochondrial membrane potential in mouse 4T1 cells at 3.12 uM incubated for 24 hrs by flow cytometry; type: cell membranes
[6] = Drug uptake in human HepG2 cells assessed as increase in fluorescence intensity at 3.12 uM incubated for 4 hrs by CLSM; type: ADME, cell-based; conditions: hepg2, 4 h
4T1 [7] = test: Induction of apoptosis in mouse 4T1 cells at 3.12 uM incubated for 4 hrs followed by exposure to laser irradiation of 808 nm for 2 mins by Annexin V-FITC/PI staining based flow cytometry; type: functional, cell-based; conditions: time 242.0 min
Mitochondrial membrane [8] = test: Inhibition of mitochondrial membrane potential in human HepG2 cells at 3.12 uM preincubated for 4 hrs followed by exposure to laser irradiation of 808 nm for 2 mins and subsequent incubation for 20 hrs by flow cytometry; type: cell membranes; conditions: time 1442.0 min
[9] = Toxicity in female BALB/c mouse bearing mouse 4T1 cells assessed as damage in spleen at 1.8 mg/kg, iv pretreated for 4 hrs followed by exposure to laser irradiation of 808 nm for 5 mins on every 2 days treated for 15 days by H and E staining based analysis; type: organism-based; conditions: in vivo, 360 h, time 15 day
[10] = Drug uptake in mouse 4T1 cells assessed as increase in fluorescence intensity at 3.12 uM incubated for 4 hrs by CLSM; type: ADME, cell-based; conditions: 4t1, 4 h
4T1 [11] = test: Antitumor activity against mouse 4T1 cells implanted in female BALB/c mouse assessed as cellular damage at 1.8 mg/kg, iv treated on every 2 days treated for 15 days by H and E staining based analysis; type: functional, organism-based; conditions: time 15.0 day
HepG2 [12] = test: Induction of ROS generation in human HepG2 cells at 3.12 uM incubated for 4 hrs followed by exposure to laser irradiation of 808 nm for 2 mins by DCFH-DA probe based CLSM; type: functional, cell-based; conditions: time 242.0 min
Mitochondrial membrane [13] = test: Inhibition of mitochondrial membrane potential in mouse 4T1 cells at 3.12 uM incubated for 24 hrs by Rh123 probe based CLSM; type: cell membranes
[14] = Toxicity in female BALB/c mouse bearing mouse 4T1 cells assessed as damage in kidney at 1.8 mg/kg, iv pretreated for 4 hrs followed by exposure to laser irradiation of 808 nm for 5 mins on every 2 days treated for 15 days by H and E staining based analysis; type: organism-based; conditions: in vivo, 360 h, time 15 day
[15] = Cytotoxicity against mouse NIH3T3 cells assessed as survival rate at 25 uM relative to control; type: toxicity, cell-based; conditions: read-out: Survival
Mitochondrial membrane [16] = test: Inhibition of mitochondrial membrane potential in mouse 4T1 cells at 3.12 uM preincubated for 4 hrs followed by exposure to laser irradiation of 808 nm for 2 mins and subsequent incubation for 20 hrs by flow cytometry; type: cell membranes; conditions: time 1442.0 min
[17] = Drug uptake in mouse 4T1 cells assessed as increase in fluorescence intensity at 3.12 uM incubated for 4 hrs by flow cytometry; type: ADME, cell-based; conditions: 4t1, 4 h
Mitochondrial membrane [18] = test: Inhibition of mitochondrial membrane potential in mouse 4T1 cells at 3.12 uM preincubated for 4 hrs followed by exposure to laser irradiation of 808 nm for 2 mins and subsequent incubation for 20 hrs by Rh123 probe based CLSM; type: cell membranes; conditions: time 1442.0 min
[19] = Photothermal property of compound assessed as increase in photothermal conversion efficiency at 20 uM exposed to laser irradiation of 808 nm for 2 mins; type: functional
HepG2 [20] = test: Induction of ROS generation in human HepG2 cells at 3.12 uM incubated for 4 hrs followed by exposure to laser irradiation of 808 nm for 2 mins by flow cytometry; type: functional, cell-based; conditions: time 242.0 min
[21] = Photosensitizing property of compound assessed as generation of singlet-state oxygen at 10 uM exposed to laser irradiation of 808 nm for 2 mins by SOSG probe based analysis; type: functional
Mitochondrial membrane [22] = test: Inhibition of mitochondrial membrane potential in human HepG2 cells at 3.12 uM preincubated for 4 hrs followed by exposure to laser irradiation of 808 nm for 2 mins and subsequent incubation for 20 hrs by Rh123 probe based CLSM; type: cell membranes; conditions: time 1442.0 min
Mitochondrial membrane [23] = test: Inhibition of mitochondrial membrane potential in human HepG2 cells at 3.12 uM incubated for 24 hrs by Rh123 probe based CLSM; type: cell membranes
[24] = Drug uptake in human HepG2 cells assessed as increase in fluorescence intensity at 3.12 uM incubated for 4 hrs by flow cytometry; type: ADME, cell-based; conditions: hepg2, 4 h
[25] = Photothermal stability of compound at 60 degreeC at 20 uM exposed to laser irradiation of 808 nm for 2.5 mins; type: physicochemical
4T1 [26] = test: Induction of ROS generation in mouse 4T1 cells at 3.12 uM incubated for 4 hrs followed by exposure to laser irradiation of 808 nm for 2 mins by DCFH-DA probe based CLSM; type: functional, cell-based; conditions: time 242.0 min
[27] = Toxicity in female BALB/c mouse bearing mouse 4T1 cells assessed as damage in lung at 2.5 mg/kg, iv pretreated for 4 hrs followed by exposure to laser irradiation of 808 nm for 5 mins on every 2 days treated for 15 days by H and E staining based analysis; type: organism-based; conditions: in vivo, 360 h, time 15 day
[28] = Toxicity in ICR mouse bearing mouse H22 cells assessed as damage in lung at 2.5 mg/kg, iv pretreated for 4 hrs followed by exposure to laser irradiation of 808 nm for 5 mins on every 2 days treated for 15 days by H and E staining based analysis; type: organism-based; conditions: in vivo, 360 h, time 15 day
[29] = Drug accumulation in tumor of female BALB/c mouse bearing mouse 4T1 cells assessed as increase in fluorescence intensity at 2.5 mg/kg, iv measured after 4 hrs by fluorescence imaging analysis; type: ADME, organism-based, Neoplasm; conditions: in vivo
4T1 [30] = test: Antitumor activity against mouse 4T1 cells implanted in female BALB/c mouse assessed as cellular damage at 2.5 mg/kg, iv pretreated for 4 hrs followed by exposure to laser irradiation of 808 nm for 5 mins on every 2 days treated for 15 days by H and E staining based analysis; type: functional, organism-based; conditions: time 15.0 day
4T1 [31] = test: Antitumor activity against mouse 4T1 cells implanted in female BALB/c mouse assessed as decrease in tumor weight at 2.5 mg/kg, iv pretreated for 4 hrs followed by exposure to laser irradiation of 808 nm for 5 mins on every 2 days treated for 15 days; type: functional, organism-based; conditions: time 15.0 day
[32] = Drug excretion in female BALB/c mouse bearing mouse 4T1 cells at 2.5 mg/kg, iv measured up to 12 hrs by fluorescence imaging analysis; type: ADME, organism-based; conditions: in vivo
[33] = Aqueous solubility of compound by absorbance based assay; type: physicochemical; conditions: buffer
4T1 [34] = test: Antitumor activity against mouse 4T1 cells implanted in female BALB/c mouse assessed as cellular damage at 2.5 mg/kg, iv treated on every 2 days treated for 15 days by H and E staining based analysis; type: functional, organism-based; conditions: time 15.0 day
[35] = Drug accumulation in tumor of female BALB/c mouse bearing mouse 4T1 cells at 2.5 mg/kg, iv measured up to 12 hrs by fluorescence imaging analysis; type: ADME, organism-based, Neoplasm; conditions: in vivo

| SMILES | inhibition (Mitochondrial membrane [1]) | Activity (HepG2 [2]) | Activity (4T1 [3]) | Activity [4] | inhibition (Mitochondrial membrane [5]) | Drug uptake [6] | Activity (4T1 [7]) | inhibition (Mitochondrial membrane [8]) | Drug uptake [10] | Activity (HepG2 [12]) | inhibition (Mitochondrial membrane [13]) | viability at 25 µM [15] | inhibition (Mitochondrial membrane [16]) | Drug uptake [17] | inhibition (Mitochondrial membrane [18]) | Activity [19] | Activity (HepG2 [20]) | Activity [21] | inhibition (Mitochondrial membrane [22]) | inhibition (Mitochondrial membrane [23]) | also measured |
| --- | --- | --- | --- | --- | --- | --- | --- | --- | --- | --- | --- | --- | --- | --- | --- | --- | --- | --- | --- | --- | --- |
| COC(=O)C(=C\C=C\C1=[N+](C)c2ccccc2C1(C)C)/C=C/C=C1/N(C)c2ccccc2C1(C)C.[I-] | Active; Certain Degree Of Inhibition Was Observed | Active | Active | Active | Active; Certain Degree Of Inhibition Was Observed | Active | Active | Active; Significant Inhibition Was Observed | Active | Active | Active; Certain Degree Of Inhibition Was Observed | > 60% | Active; Significant Inhibition Was Observed | Active | Active; Significant Inhibition Was Observed | Not active; Lowest Efficiency Observed Among Tested Compounds | Active | inactive | Active; Significant Inhibition Was Observed | Active; Certain Degree Of Inhibition Was Observed | Activity [9]: Non-toxic; Activity (4T1 [11]): Not active; Minor Cell Damage Was Observed; Activity [14]: Non-toxic; Drug uptake [24]: Active; Stability [25]: Unstable; Activity (4T1 [26]): Active |
| COCCOCCOCCN1/C(=C/C=C/C(=C/C=C/C2=[N+](CCOCCOCCOC)c3ccccc3C2(C)C)C(=O)OC)C(C)(C)c2ccccc21.[I-] | Active; Certain Degree Of Inhibition Was Observed | Active | Active; Exhibited Only A Smaller Increase In Activity | Active | Active; Certain Degree Of Inhibition Was Observed | Active | Active | Active; Significant Inhibition Was Observed | Active | Active; Exhibited Only A Smaller Increase In Activity | Active; Certain Degree Of Inhibition Was Observed | > 60% | Active; Significant Inhibition Was Observed | Active | Active; Significant Inhibition Was Observed | Active; Highest Efficiency Observed Among Tested Compounds | Active; Exhibited Only A Smaller Increase In Activity | Active | Active; Significant Inhibition Was Observed | Active; Certain Degree Of Inhibition Was Observed | Activity [27]: Non-toxic; Activity [28]: Non-toxic; Drug uptake [29]: Active; Activity (4T1 [30]): Active; Activity (4T1 [31]): Active; Drug excretion [32]: Active; Drug uptake [24]: Active; solubility [33]: soluble; Activity (4T1 [34]): Not active; Minor Cell Damage Was Observed; Drug uptake [35]: Active; Stability [25]: Stable; Activity (4T1 [26]): Active; Exhibited Only A Smaller Increase In Activity |
